According to publication PMC11864979, “First-in-class ultralong-target-residence-time p38α inhibitors as a mitosis-targeted therapy for colorectal cancer” (Nature Cancer, 2025):
Like-named read-outs stand apart in the source and are kept apart here.

What was measured:
Assay in all cases: selectivity profiling in a panel of 340 wild-type kinases (Reaction Biology Europe)
Assay type in all cases: binding
340 wild-type kinases [1] = molecular target: T1, 340 wild-type kinases (Homo sapiens, UniProt Q9NQU5)
T1 construct: purchased Reaction Biology Europe

340 wild-type kinases [2] = molecular target: T2, 340 wild-type kinases (Homo sapiens, UniProt P17612)
T2 construct: purchased Reaction Biology Europe

340 wild-type kinases [3] = molecular target: T3, 340 wild-type kinases (Homo sapiens, UniProt Q99759)
T3 construct: purchased Reaction Biology Europe
T3 sequence (Q99759 1-626): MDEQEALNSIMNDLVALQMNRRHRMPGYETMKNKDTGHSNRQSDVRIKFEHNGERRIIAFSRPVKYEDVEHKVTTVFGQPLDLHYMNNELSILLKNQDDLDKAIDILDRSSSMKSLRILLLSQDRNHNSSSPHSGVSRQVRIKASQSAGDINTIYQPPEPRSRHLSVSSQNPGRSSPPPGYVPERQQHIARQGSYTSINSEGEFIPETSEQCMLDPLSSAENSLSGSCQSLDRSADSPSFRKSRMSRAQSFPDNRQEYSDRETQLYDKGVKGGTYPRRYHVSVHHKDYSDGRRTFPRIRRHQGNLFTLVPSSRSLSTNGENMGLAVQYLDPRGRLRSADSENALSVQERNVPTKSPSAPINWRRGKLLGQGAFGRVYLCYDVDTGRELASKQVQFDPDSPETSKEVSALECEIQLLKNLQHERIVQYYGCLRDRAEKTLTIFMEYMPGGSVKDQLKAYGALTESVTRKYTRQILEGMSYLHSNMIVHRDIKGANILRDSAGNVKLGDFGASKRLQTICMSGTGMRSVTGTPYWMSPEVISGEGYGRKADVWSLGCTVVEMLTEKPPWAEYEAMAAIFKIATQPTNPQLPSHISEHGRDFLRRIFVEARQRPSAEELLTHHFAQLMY

340 wild-type kinases [4] = molecular target: T4, 340 wild-type kinases (Homo sapiens, UniProt Q92630)
T4 construct: purchased Reaction Biology Europe
T4 sequence (Q92630 1-601): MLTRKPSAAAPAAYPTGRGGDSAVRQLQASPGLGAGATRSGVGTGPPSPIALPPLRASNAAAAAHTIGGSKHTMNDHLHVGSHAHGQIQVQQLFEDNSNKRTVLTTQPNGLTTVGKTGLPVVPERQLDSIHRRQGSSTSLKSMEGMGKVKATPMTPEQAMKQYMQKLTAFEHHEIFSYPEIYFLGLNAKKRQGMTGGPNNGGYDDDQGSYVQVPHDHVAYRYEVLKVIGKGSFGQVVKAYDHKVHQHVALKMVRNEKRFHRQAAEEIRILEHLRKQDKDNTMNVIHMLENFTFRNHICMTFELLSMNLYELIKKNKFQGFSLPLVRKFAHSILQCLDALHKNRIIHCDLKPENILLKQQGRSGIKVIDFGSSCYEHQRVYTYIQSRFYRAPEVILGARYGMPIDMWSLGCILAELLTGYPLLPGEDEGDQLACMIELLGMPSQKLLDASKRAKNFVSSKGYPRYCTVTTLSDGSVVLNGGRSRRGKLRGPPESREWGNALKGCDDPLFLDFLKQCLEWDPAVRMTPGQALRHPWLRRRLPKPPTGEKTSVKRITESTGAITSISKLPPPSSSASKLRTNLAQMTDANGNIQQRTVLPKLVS

340 wild-type kinases [5] = molecular target: T5, 340 wild-type kinases (Homo sapiens, UniProt Q02763)
T5 construct: purchased Reaction Biology Europe

340 wild-type kinases [6] = molecular target: T6, 340 wild-type kinases (Homo sapiens, UniProt P42680)
T6 construct: purchased Reaction Biology Europe
T6 sequence (P42680 1-631): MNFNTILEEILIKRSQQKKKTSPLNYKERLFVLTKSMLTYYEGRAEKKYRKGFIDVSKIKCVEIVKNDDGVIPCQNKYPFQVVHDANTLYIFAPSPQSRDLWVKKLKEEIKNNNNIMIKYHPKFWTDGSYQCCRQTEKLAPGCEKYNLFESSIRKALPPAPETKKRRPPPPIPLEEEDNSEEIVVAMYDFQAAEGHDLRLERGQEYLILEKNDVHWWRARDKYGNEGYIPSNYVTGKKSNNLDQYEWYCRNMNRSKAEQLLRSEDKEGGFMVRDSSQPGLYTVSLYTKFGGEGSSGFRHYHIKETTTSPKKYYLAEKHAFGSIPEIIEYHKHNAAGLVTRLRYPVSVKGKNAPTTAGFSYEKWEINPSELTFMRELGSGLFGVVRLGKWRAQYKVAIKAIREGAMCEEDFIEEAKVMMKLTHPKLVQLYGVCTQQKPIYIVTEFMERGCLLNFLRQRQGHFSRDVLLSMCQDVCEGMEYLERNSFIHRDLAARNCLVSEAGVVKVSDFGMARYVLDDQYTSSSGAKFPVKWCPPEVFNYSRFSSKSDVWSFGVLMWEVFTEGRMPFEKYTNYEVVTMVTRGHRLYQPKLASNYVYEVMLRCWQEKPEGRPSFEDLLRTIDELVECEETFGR

340 wild-type kinases [7] = molecular target: T7, 340 wild-type kinases (Homo sapiens, UniProt P51812)
T7 construct: purchased Reaction Biology Europe

340 wild-type kinases [8] = molecular target: T8, 340 wild-type kinases (Homo sapiens, UniProt P29597)
T8 construct: purchased Reaction Biology Europe

340 wild-type kinases [9] = molecular target: T9, 340 wild-type kinases (Homo sapiens, UniProt P17252)
T9 construct: purchased Reaction Biology Europe

T1 sequence (Q9NQU5 whole entry): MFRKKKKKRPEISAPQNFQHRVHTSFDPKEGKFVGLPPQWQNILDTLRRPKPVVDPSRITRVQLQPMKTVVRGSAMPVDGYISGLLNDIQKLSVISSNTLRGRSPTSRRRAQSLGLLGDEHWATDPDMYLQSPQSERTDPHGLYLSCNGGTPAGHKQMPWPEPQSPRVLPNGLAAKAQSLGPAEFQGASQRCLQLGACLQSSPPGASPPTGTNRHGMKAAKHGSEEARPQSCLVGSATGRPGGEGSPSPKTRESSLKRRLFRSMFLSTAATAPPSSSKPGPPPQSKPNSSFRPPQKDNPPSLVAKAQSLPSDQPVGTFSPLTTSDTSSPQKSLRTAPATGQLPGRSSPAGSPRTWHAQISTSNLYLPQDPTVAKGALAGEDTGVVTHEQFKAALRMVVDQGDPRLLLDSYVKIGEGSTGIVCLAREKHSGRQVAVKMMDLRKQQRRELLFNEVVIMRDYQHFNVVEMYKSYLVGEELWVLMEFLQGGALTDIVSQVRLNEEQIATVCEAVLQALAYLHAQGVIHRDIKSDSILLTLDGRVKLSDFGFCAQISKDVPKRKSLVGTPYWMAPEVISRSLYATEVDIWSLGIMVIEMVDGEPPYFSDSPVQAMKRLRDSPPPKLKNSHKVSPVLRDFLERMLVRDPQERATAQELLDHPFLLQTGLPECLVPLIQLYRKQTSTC
T5 sequence (Q02763 23-1124): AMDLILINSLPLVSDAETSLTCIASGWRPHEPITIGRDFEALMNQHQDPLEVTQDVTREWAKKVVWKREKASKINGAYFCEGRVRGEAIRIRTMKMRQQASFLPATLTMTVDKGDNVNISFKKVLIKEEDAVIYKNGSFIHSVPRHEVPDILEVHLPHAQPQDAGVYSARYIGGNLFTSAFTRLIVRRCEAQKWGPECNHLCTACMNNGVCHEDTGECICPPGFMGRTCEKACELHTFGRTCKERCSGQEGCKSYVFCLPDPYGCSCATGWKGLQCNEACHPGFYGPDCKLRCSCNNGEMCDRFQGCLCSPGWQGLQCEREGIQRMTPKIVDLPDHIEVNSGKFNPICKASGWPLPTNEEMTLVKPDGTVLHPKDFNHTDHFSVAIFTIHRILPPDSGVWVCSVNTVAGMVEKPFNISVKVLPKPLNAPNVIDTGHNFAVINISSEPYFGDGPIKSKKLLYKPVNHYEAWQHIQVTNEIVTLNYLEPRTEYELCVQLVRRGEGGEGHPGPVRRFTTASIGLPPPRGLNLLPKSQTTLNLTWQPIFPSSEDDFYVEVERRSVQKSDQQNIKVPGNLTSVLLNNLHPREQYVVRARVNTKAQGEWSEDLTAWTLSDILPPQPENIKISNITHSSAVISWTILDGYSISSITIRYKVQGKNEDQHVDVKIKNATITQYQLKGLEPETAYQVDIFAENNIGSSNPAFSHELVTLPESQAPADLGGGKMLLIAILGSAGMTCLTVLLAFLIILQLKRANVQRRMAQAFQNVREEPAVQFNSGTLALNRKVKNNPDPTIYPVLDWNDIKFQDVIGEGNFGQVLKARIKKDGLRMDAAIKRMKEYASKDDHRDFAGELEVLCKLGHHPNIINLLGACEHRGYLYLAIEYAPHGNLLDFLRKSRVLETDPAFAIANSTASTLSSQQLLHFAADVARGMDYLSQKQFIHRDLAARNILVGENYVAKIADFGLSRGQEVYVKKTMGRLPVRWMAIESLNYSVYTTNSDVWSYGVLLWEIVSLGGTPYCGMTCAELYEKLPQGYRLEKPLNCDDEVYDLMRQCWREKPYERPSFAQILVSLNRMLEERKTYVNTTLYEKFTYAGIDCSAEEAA
T8 sequence (P29597 whole entry): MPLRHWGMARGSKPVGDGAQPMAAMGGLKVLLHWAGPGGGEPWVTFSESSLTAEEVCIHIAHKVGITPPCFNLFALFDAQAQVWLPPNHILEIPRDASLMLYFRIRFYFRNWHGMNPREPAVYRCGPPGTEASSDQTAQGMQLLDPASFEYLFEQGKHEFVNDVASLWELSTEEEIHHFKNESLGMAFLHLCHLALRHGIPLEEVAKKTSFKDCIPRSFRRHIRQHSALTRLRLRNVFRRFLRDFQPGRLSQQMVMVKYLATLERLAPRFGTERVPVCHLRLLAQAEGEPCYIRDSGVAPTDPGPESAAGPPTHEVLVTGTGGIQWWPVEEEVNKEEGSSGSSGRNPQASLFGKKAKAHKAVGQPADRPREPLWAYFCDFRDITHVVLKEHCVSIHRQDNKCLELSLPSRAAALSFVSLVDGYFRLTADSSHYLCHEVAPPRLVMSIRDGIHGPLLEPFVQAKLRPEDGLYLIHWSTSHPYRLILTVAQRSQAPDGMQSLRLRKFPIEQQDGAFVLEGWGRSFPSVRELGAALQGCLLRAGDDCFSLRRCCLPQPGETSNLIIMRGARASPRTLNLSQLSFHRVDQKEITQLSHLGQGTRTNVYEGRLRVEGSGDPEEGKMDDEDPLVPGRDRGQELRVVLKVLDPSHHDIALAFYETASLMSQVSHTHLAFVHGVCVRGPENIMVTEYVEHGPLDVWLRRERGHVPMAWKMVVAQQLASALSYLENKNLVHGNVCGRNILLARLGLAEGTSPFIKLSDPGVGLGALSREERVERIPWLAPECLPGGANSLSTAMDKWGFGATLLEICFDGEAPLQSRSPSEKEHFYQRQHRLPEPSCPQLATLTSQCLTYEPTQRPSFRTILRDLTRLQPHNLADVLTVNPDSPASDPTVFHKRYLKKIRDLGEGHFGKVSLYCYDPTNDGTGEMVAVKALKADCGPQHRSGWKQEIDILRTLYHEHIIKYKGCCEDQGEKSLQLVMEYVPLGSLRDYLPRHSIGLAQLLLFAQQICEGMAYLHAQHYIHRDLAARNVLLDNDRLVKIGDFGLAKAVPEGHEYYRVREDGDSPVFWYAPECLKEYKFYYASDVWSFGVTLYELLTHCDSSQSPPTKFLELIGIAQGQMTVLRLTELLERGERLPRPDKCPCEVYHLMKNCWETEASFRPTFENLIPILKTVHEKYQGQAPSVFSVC
T7 sequence (P51812 whole entry): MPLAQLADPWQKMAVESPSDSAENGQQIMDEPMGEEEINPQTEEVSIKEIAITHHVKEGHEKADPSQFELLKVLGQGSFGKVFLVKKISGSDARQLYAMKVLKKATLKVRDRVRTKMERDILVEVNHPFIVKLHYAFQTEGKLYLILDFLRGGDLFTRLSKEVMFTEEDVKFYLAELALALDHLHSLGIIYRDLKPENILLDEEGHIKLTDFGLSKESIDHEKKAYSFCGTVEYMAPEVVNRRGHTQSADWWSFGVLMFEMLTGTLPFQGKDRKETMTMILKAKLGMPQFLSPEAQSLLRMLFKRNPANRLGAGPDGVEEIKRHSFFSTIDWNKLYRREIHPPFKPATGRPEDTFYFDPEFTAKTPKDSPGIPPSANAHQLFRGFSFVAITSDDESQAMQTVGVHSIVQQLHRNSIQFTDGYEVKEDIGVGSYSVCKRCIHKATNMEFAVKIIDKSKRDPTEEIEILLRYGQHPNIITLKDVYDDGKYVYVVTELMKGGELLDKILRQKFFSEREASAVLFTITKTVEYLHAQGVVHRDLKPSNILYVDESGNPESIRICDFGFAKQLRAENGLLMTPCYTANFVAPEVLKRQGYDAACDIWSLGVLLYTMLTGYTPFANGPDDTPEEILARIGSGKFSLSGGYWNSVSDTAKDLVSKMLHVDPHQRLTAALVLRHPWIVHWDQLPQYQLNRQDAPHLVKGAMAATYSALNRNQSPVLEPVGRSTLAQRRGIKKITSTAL

SMILES: CNC(=O)c1ccc2c(c1)C(=O)c1ccc(Nc3ccc(F)c(NC(=O)C4CC4)c3)cc1CC2 [Compound 2015]
- remaining activity at 0.2 µM (340 wild-type kinases [1]; 0.2 µM 2015, read-out: PAK6 residual activity): 98%
- remaining activity at 1 µM (340 wild-type kinases [1]; 1 µM 2015, read-out: PAK6 residual activity): 89.3%
- remaining activity at 0.2 µM (340 wild-type kinases [1]; PAK6, 0.2 µM, read-out: residual activity): 98%
- remaining activity at 1 µM (340 wild-type kinases [1]; PAK6, 1 µM, read-out: residual activity): 89.3%
- remaining activity at 0.2 µM (340 wild-type kinases [2]; 0.2 µM 2015, read-out: PKA residual activity): 124%
- remaining activity at 1 µM (340 wild-type kinases [2]; 1 µM 2015, read-out: PKA residual activity): 97.7%
- remaining activity at 0.2 µM (340 wild-type kinases [2]; PKA, 0.2 µM, read-out: residual activity): 124%
- remaining activity at 1 µM (340 wild-type kinases [2]; PKA, 1 µM, read-out: residual activity): 97.8%
- remaining activity at 0.2 µM (340 wild-type kinases [3]; 0.2 µM 2015, read-out: MEKK3 residual activity): 105%
- remaining activity at 1 µM (340 wild-type kinases [3]; 1 µM 2015, read-out: MEKK3 residual activity): 101%
- remaining activity at 0.2 µM (340 wild-type kinases [3]; MEKK3, 0.2 µM, read-out: residual activity): 105%
- remaining activity at 1 µM (340 wild-type kinases [3]; MEKK3, 1 µM, read-out: residual activity): 101%
- remaining activity at 0.2 µM (340 wild-type kinases [4]; 0.2 µM 2015, read-out: DYRK2 residual activity): 95.7%
- remaining activity at 1 µM (340 wild-type kinases [4]; 1 µM 2015, read-out: DYRK2 residual activity): 94.2%
- remaining activity at 0.2 µM (340 wild-type kinases [4]; DYRK2, 0.2 µM, read-out: residual activity): 95.7%
- remaining activity at 1 µM (340 wild-type kinases [4]; DYRK2, 1 µM, read-out: residual activity): 94.2%
- remaining activity at 0.2 µM (340 wild-type kinases [5]; 0.2 µM 2015, read-out: TIE2 residual activity): 120%
- remaining activity at 1 µM (340 wild-type kinases [5]; 1 µM 2015, read-out: TIE2 residual activity): 90.4%
- remaining activity at 0.2 µM (340 wild-type kinases [5]; TIE2, 0.2 µM, read-out: residual activity): 120%
- remaining activity at 1 µM (340 wild-type kinases [5]; TIE2, 1 µM, read-out: residual activity): 90.5%
- remaining activity at 0.2 µM (340 wild-type kinases [6]; 0.2 µM 2015, read-out: TEC residual activity): 120%
- remaining activity at 1 µM (340 wild-type kinases [6]; 1 µM 2015, read-out: TEC residual activity): 108%
- remaining activity at 0.2 µM (340 wild-type kinases [6]; TEC, 0.2 µM, read-out: residual activity): 120%
- remaining activity at 1 µM (340 wild-type kinases [6]; TEC, 1 µM, read-out: residual activity): 108%
- remaining activity at 0.2 µM (340 wild-type kinases [7]; 0.2 µM 2015, read-out: RPS6KA3 residual activity): 107%
- remaining activity at 1 µM (340 wild-type kinases [7]; 1 µM 2015, read-out: RPS6KA3 residual activity): 103%
- remaining activity at 0.2 µM (340 wild-type kinases [7]; RPS6KA3, 0.2 µM, read-out: residual activity): 107%
- remaining activity at 1 µM (340 wild-type kinases [7]; RPS6KA3, 1 µM, read-out: residual activity): 103%
- remaining activity at 0.2 µM (340 wild-type kinases [8]; 0.2 µM 2015, read-out: TYK2 residual activity): 103%
- remaining activity at 1 µM (340 wild-type kinases [8]; 1 µM 2015, read-out: TYK2 residual activity): 96.3%
- remaining activity at 0.2 µM (340 wild-type kinases [8]; TYK2, 0.2 µM, read-out: residual activity): 103%
- remaining activity at 1 µM (340 wild-type kinases [8]; TYK2, 1 µM, read-out: residual activity): 96.3%
- remaining activity at 0.2 µM (340 wild-type kinases [9]; 0.2 µM 2015, read-out: PKCalpha residual activity): 118%
- remaining activity at 1 µM (340 wild-type kinases [9]; 1 µM 2015, read-out: PKCalpha residual activity): 98.8%
- remaining activity at 0.2 µM (340 wild-type kinases [9]; PKCalpha, 0.2 µM, read-out: residual activity): 118%
- remaining activity at 1 µM (340 wild-type kinases [9]; PKCalpha, 1 µM, read-out: residual activity): 98.8%
